The IC50 is the concentration that gives 50% inhibition.

The text below walks through data of article PMC11539244, “Relative inhibitory activities of newly developed diazabicyclooctanes, boronic acid derivatives, and penicillin-based sulfone β-lactamase inhibitors against broad-spectrum AmpC β-lactamases” (Antimicrobial Agents and Chemotherapy, 2024).

The structures appear in SMILES notation. Like-named read-outs stand apart in the source and are kept apart here. Some results are limits rather than exact numbers.

For assay [1], the target named is ACC-1 (Hafnia alvei, UniProt Q9XB24). In words: IC50 of β-lactamase inhibitors, crude extract, ACC-1. The class given is biochemical.
Assay [2] concerns the target FOX-5 (Aeromonas allosaccharophila, UniProt Q9F4K3). The experiment in a line: IC50 of β-lactamase inhibitors, crude extract, FOX-5. The class given is biochemical.
For assay [3], the target named is ACT-7 (Enterobacter asburiae, UniProt B6V6L3). In words: biochemical.
For assay [4], the target named is ACT-17 (Enterobacter asburiae, UniProt P05364). The class given is biochemical. To be noted: crude extract of E. coli TOP10 recombinant strain, mean of triplicate.
For assay [5], the target named is T1, CMY-2 (Klebsiella pneumoniae, UniProt Q48434).
T1 construct: made in house; host or cells: E. coli TOP10, plasmid pUCp24
In words: biochemical. The arrangement: species or system Citrobacter spp.

Assay [6] concerns the target T2, CMY-42 (Klebsiella pneumoniae, UniProt Q48434, V231S).
T2 construct: made in house; host or cells: E. coli TOP10, plasmid pUCp24
In words: biochemical. More on the design: species or system Citrobacter spp.

In assay [7] the target is DHA-1 (Morganella morganii, UniProt P94958). In words: IC50 of β-lactamase inhibitors, crude extract, DHA-1. The class given is biochemical.
Assay [8] concerns the target LAT-1 (Citrobacter portucalensis, UniProt Q48443). In words: biochemical.
In assay [9] the target is MOX-2 (Aeromonas caviae, UniProt Q9L3G2). The experiment in a line: IC50 of β-lactamase inhibitors, crude extract, MOX-2. The class given is biochemical.
Assay [10] has as its target MIR-17. The experiment in a line: IC50 of β-lactamase inhibitors, crude extract, MIR-17. The class given is biochemical, Enterobacter roggenkampii. The note with it: crude extract of E. coli TOP10 recombinant strain, mean of triplicate.
In assay [11] the target is Ear-1 (Klebsiella aerogenes, UniProt A0A0H3FRQ3). The experiment in a line: IC50 of β-lactamase inhibitors, crude extract, Ear-1. Type of assay: biochemical.
The target of assay [12] is SRT-1 (Serratia marcescens, UniProt P18539). The experiment in a line: IC50 of β-lactamase inhibitors, crude extract, SRT-1. The class given is biochemical. The note with it: crude extract of E. coli TOP10 recombinant strain, mean of triplicate.
In assay [13] the target is ADC-50 (Acinetobacter baumannii, UniProt Q6DRA1). In words: IC50 of β-lactamase inhibitors, crude extract, ADC-50. The note with it: for IC50: ADC-50, crude extract of E. coli TOP10 recombinant strain, mean of triplicate; for inhibition of ADC-50 (in words): ADC-50 of A. baumannii. Type of assay: biochemical, A. baumannii.
For assay [14], the target named is YRC-1 (Yersinia ruckeri, UniProt Q20I87). In words: IC50 of β-lactamase inhibitors, crude extract, YRC-1. Type of assay: biochemical.
Assay [15] deals with T3, PDC-1 (Pseudomonas aeruginosa, UniProt P24735).
T3 construct: made in house; host or cells: E. coli TOP10, plasmid pUCp24
The experiment in a line: biochemical. More on the design: species or system P. aeruginosa.

The target of assay [16] is T4, PDC-5 (Pseudomonas aeruginosa, UniProt P24735, R79Q/T105A).
T4 construct: made in house; host or cells: E. coli TOP10, plasmid pUCp24
In words: biochemical. More on the design: species or system P. aeruginosa.

In assay [17] the target is PDC-382 (Pseudomonas aeruginosa, UniProt P24735, T96I). In words: biochemical. More on the design: species or system P. aeruginosa.
In assay [18] the test system is E. coli TOP10. The experiment in a line: microbe, parasite or virus in culture. To be noted: Escherichia coli, TOP10; E. coli TOP 10; β-lactamase inhibitor alone; read-out: MIC values of inhibitor alone. The class given is cell-based. The method, then: In order to assess the relative inhibitory activities of those BLI against AmpC β-lactamases, the corresponding blaampC genes without the original promoter sequences were amplified by PCR with specific primers, and corresponding amplicons were cloned into plasmid pUCp24, as described previously ([12], [13]). […] Cultures of E. coli TOP10 harboring recombinant plasmids and therefore producing the different AmpC tested were grown overnight at 37°C in Luria-Bertani agar medium containing amoxicillin (AMX) (50 µg/mL). The activity of the following acquired class C β-lactamases could therefore be evaluated, namely, ACC-1 (originally from Hafnia spp.), FOX-5 (from Aeromonas allosaccharophila), CMY-2 and CMY-42 (from Citrobacter spp.), DHA-1 (from Morganella morganii), ACT-7 and ACT-17 (from Enterobacter asburiae), MIR-17 (from Enterobacter roggenkampii), MOX-2 (from Aeromonas caviae), and LAT-1 (from Citrobacter portucalensis) ([5]). […] Altogether, these enzymes were chosen as representatives of clinically relevant class C β-lactamases being sources of intrinsic or acquired resistance to broad-spectrum β-lactams among most of the commonly identified Gram-negative bacteria in clinical practice.
MICs were determined in triplicate by broth microdilution (BMD) for CAZ and AMX, as well as their combinations with each β-lactamase inhibitor. CAZ, AMX, and CLA were purchased from Sigma-Aldrich (St. Louis, MO, USA). All others inhibitors (TAZ HY-W009168, AVI HY-14879, REL HY-16752, VAB HY-19930, NAC HY-109008, ZID HY-120859, TAN HY-109124, XER HY-136072, DUR HY-117974, EMT HY-103095) were purchased from MedChem Express (Luzern, Switzerland). The concentration of each β-lactamase inhibitor was chosen as the concentration used in the respective BL/BLI combination under development or commercially available, according to EUCAST or CLSI ([18], [19]). […] BMD assays were performed in cation-adjusted Mueller-Hinton (MH) broth (Bio-Rad, Marnes-la-Coquette, France) for all antibiotics or antibiotic combinations listed above, according to the EUCAST guidelines ([20]).

Chain of ACT-17 (P05364 21-381): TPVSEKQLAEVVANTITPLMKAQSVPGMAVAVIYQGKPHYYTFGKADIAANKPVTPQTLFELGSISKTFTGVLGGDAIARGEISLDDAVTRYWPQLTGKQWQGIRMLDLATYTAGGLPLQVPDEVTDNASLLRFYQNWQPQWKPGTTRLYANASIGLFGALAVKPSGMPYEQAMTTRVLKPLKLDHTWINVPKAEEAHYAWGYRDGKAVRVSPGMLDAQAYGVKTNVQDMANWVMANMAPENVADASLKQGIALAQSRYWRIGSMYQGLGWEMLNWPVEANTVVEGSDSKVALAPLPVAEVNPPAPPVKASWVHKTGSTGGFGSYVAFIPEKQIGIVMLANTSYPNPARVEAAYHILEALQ
Chain of ACT-7 (B6V6L3 entry or part of it): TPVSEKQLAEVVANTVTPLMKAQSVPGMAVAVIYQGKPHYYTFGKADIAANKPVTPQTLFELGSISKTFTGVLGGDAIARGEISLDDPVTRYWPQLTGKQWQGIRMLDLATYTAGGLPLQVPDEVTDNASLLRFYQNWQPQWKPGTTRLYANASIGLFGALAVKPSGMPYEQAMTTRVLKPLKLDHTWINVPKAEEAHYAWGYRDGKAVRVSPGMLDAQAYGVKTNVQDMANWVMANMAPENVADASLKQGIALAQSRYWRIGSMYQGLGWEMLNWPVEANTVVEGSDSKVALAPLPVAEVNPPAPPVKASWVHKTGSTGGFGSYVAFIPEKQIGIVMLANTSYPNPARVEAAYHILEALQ
T3 sequence (P24735 27-397): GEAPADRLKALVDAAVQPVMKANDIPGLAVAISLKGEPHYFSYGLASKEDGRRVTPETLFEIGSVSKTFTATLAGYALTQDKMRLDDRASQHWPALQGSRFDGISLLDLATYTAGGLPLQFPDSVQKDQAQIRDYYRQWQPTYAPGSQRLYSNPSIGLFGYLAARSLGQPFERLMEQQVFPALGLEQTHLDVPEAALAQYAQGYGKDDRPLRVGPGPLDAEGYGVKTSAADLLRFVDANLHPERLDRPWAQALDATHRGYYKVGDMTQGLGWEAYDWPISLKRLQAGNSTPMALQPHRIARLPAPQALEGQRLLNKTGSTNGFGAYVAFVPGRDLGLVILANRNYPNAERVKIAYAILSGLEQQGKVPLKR
Chain of ACC-1 (Q9XB24 entry or part of it): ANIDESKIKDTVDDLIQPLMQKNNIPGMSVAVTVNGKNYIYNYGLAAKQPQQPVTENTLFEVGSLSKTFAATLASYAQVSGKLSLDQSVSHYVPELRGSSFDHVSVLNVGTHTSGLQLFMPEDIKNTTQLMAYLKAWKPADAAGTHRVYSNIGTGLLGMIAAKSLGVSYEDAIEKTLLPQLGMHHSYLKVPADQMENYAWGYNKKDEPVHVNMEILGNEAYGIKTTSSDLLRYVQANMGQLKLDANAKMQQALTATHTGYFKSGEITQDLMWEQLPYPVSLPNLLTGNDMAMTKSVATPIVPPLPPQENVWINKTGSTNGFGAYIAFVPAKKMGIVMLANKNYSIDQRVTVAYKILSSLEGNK
Chain of FOX-5 (Q9F4K3 entry or part of it): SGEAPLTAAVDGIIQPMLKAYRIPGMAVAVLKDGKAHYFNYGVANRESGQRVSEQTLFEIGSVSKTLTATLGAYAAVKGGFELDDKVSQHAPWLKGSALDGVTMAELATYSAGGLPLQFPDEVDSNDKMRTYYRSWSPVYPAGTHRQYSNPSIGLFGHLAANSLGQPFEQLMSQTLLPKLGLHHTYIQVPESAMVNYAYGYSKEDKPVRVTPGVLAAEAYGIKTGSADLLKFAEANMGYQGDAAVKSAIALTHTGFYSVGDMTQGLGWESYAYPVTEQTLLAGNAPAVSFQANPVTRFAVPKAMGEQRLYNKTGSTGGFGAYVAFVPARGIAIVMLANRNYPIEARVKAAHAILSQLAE
Chain of SRT-1 (P18539 22-376): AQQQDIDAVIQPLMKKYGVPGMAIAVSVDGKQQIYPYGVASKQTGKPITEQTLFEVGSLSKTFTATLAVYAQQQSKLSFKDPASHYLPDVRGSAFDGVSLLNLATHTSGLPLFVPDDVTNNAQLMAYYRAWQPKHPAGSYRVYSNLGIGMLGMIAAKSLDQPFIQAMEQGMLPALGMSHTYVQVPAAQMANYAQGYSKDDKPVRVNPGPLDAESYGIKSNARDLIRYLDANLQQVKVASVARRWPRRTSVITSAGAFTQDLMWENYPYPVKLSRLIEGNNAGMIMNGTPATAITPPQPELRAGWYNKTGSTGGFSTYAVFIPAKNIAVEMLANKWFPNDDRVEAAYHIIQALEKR
Chain of Ear-1 (A0A0H3FRQ3 entry or part of it): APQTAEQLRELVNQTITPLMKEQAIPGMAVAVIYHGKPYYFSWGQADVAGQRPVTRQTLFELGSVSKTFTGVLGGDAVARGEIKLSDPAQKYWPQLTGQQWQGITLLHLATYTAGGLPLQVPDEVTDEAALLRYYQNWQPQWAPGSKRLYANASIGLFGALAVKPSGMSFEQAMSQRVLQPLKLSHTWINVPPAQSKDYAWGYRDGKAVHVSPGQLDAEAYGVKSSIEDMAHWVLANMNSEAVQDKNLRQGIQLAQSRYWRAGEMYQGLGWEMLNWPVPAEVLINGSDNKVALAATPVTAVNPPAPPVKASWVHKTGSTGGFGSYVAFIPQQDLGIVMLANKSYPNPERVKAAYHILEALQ
T4 sequence (P24735 27-397 R79Q/T105A): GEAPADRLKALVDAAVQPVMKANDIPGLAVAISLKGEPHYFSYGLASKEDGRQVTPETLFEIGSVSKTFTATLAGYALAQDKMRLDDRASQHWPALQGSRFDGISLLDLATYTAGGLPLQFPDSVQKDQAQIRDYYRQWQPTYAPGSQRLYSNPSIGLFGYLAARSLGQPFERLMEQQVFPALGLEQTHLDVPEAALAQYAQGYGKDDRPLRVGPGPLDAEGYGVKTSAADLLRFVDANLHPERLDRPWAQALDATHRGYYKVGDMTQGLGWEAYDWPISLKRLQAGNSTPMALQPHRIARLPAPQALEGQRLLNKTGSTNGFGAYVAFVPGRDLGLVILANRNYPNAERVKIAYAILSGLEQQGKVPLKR
Chain of LAT-1 (Q48443 entry or part of it): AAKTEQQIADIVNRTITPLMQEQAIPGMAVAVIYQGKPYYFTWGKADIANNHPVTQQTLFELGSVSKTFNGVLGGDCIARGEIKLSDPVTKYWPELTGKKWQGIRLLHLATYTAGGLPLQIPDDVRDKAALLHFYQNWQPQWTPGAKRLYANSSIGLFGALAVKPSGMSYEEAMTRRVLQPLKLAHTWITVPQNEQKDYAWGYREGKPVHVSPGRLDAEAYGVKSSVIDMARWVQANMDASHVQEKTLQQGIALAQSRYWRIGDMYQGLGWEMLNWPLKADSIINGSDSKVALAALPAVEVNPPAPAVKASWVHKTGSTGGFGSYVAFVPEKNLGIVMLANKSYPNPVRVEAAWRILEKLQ
Chain of YRC-1 (Q20I87 entry or part of it): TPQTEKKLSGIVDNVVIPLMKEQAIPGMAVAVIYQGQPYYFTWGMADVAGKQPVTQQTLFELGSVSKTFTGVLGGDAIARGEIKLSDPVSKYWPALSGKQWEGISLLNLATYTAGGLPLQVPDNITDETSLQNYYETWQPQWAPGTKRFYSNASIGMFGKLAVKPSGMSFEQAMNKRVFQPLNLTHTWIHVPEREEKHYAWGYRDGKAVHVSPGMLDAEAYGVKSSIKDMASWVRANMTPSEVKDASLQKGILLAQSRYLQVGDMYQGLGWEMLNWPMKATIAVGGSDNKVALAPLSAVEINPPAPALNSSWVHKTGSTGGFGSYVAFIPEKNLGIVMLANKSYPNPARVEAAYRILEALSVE
Chain of PDC-382 (P24735 27-397 T96I): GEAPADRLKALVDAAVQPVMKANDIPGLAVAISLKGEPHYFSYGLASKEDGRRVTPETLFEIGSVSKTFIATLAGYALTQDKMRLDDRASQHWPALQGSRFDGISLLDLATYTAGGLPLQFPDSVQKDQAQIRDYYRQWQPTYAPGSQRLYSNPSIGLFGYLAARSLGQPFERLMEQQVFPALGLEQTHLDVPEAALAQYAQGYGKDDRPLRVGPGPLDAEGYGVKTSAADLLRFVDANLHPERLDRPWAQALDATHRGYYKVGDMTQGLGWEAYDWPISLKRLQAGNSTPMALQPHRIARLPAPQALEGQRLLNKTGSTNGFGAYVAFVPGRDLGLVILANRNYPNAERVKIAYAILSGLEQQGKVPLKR
T1 sequence (Q48434 21-381): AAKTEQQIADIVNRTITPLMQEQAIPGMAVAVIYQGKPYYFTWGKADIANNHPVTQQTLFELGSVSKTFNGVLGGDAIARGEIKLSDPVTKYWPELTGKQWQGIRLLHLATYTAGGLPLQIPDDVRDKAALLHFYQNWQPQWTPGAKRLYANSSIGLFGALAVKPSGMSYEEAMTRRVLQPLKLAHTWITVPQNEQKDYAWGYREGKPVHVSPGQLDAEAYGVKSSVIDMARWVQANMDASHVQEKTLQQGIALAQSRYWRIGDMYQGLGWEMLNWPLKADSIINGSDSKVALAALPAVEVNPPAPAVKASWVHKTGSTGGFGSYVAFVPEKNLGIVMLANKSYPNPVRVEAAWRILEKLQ
Chain of MOX-2 (Q9L3G2 entry or part of it): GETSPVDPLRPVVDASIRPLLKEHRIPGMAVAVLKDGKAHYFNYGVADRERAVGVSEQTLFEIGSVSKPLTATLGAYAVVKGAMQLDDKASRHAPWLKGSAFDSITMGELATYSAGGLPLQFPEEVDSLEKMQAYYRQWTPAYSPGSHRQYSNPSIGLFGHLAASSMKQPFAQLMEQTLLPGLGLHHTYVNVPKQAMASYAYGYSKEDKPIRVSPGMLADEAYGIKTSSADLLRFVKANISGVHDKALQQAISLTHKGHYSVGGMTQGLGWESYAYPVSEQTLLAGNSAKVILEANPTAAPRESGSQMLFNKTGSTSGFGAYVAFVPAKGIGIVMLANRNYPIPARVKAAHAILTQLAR

Turning to `NC(=O)[C@@H]1CC[C@@H]2CN1C(=O)N2OS(=O)(=O)O` [Avibactam, avibactam], the IC50 in [1] turned out to be 0.25 µM; in [2], 1 µM; in assay [3], 0.8 µM; in assay [4], 0.9 µM; in [5] it was 0.61 µM; in [6] it was 0.65 µM. For the same compound, the concentration for half-maximal inhibition (IC50) in [7] amounted to 0.11 µM; in assay [8], 0.4 µM; in assay [9], 5.6 µM; in assay [10], 1 µM; in assay [11] it was 0.88 µM; in assay [12], 6.7 µM. Moreover, the IC50 in assay [13] is 61 µM; in [13] (listed as AVI), greater than 13 µM; in assay [14] it was 2.1 µM.

Take `O=C(O)[C@H]1/C(=C/CO)O[C@@H]2CC(=O)N21` [Clavulanic acid, clavulanic acid]: the half-maximal inhibitory concentration (IC50) in assay [1], in assay [2], in [3], in assay [5], in assay [6] and in assay [7] was greater than 100 µM each time. The IC50 in assay [8], in assay [9], in assay [10], in [11], in assay [12] and in assay [15] was greater than 100 µM throughout. Moreover, the IC50 in assay [16], in [17], in [13] and in [14] was greater than 100 µM throughout.

Turning to `Cn1cc[n+](C[C@@]2(C)[C@H](C(=O)[O-])N3C(=O)C[C@H]3S2(=O)=O)n1` [Enmetazobactam, enmetazobactam], the IC50 in assay [1] (ACC-1, crude extract of E. coli TOP10 recombinant strain, mean of triplicate, read-out: IC50) is 39 µM; in assay [2] (FOX-5, crude extract of E. coli TOP10 recombinant strain, mean of triplicate, read-out: IC50), greater than 100 µM; in assay [3] (ACT-7, crude extract of E. coli TOP10 recombinant strain, mean of triplicate, read-out: IC50) it was 43 µM; in assay [4] (read-out: IC50), 62 µM; in assay [5] (CMY-2, crude extract of E. coli TOP10 recombinant strain, mean of triplicate, read-out: IC50), 40 µM; in [6] (CMY-42, crude extract of E. coli TOP10 recombinant strain, mean of triplicate, read-out: IC50) it was 64 µM. Also, the IC50 in assay [7] (DHA-1, crude extract of E. coli TOP10 recombinant strain, mean of triplicate, read-out: IC50) was 26 µM; in [8] (LAT-1, crude extract of E. coli TOP10 recombinant strain, mean of triplicate, read-out: IC50), 97 µM; in assay [9] (MOX-2, crude extract of E. coli TOP10 recombinant strain, mean of triplicate, read-out: IC50) it was greater than 100 µM; in assay [10] it was greater than 100 µM; in [11] (Ear-1, crude extract of E. coli TOP10 recombinant strain, mean of triplicate, read-out: IC50), 91 µM; in assay [12] (read-out: IC50), greater than 100 µM. For the same compound, the concentration for half-maximal inhibition (IC50) is greater than 100 µM in assay [15] (PDC-1, crude extract of E. coli TOP10 recombinant strain, mean of triplicate, read-out: IC50); greater than 100 µM in assay [16] (PDC-5, crude extract of E. coli TOP10 recombinant strain, mean of triplicate, read-out: IC50); greater than 100 µM in assay [17] (PDC-382, crude extract of E. coli TOP10 recombinant strain, mean of triplicate, read-out: IC50); greater than 100 µM in assay [13] (read-out: IC50); greater than 100 µM in assay [14] (YRC-1, crude extract of E. coli TOP10 recombinant strain, mean of triplicate, read-out: IC50). Besides, the “inhibition of ADC-50 (in words)” value in assay [13] is “not significantly inhibited”.

Take `O=C(NC1CCNCC1)[C@@H]1CC[C@@H]2CN1C(=O)N2OS(=O)(=O)O` [Relebactam, relebactam]: the IC50 in assay [1] was 0.58 µM; in assay [2], 2 µM; in assay [3], 0.71 µM; in assay [4], 0.33 µM; in assay [5] it was 0.59 µM; in assay [6] it was 1.1 µM. In addition, the concentration for half-maximal inhibition (IC50) in assay [7] was found to be 0.85 µM; in assay [8], 0.23 µM; in [9] it was 2.4 µM; in assay [10], 1.3 µM; in [11] it was 0.89 µM; in assay [12], 37 µM. The results for the half-maximal inhibitory concentration (IC50) in [13], in assay [13] (listed as REL) and in assay [14] were 13 µM, greater than 13 µM and 1.9 µM, respectively.

Turning to `C[C@]1(Cn2ccnn2)[C@H](C(=O)O)N2C(=O)C[C@H]2S1(=O)=O` [Tazobactam, tazobactam], the IC50 in assay [1] amounted to 2.1 µM; in assay [2] it was 23 µM; in [3], 23 µM; in [5], 20 µM; in assay [6] it was 24 µM; in assay [7], 1.3 µM. In addition, the 50% inhibitory concentration (IC50) is 7.3 µM in assay [8]; greater than 100 µM in assay [9]; 83 µM in assay [10]; 72 µM in assay [11]; 48 µM in assay [12]; greater than 100 µM in assay [13]. Moreover, the half-maximal inhibitory concentration (IC50) in assay [14] is greater than 100 µM.

With `O=C(O)C[C@@H]1CC[C@H](NC(=O)Cc2cccs2)B(O)O1` [Vaborbactam, vaborbactam], the half-inhibitory concentration (IC50) stood at 3.6 µM in [1]; 17 µM in [2]; 3.6 µM in assay [3]; 2.6 µM in [4]; 5.3 µM in [5]; 13 µM in assay [6]. Besides, the IC50 in [7] stood at 3.1 µM; in assay [8] it was 1.2 µM; in assay [9], 1.9 µM; in [10], 1.1 µM; in [11], 0.84 µM; in [12], 6.9 µM. Besides, the IC50 is 11 µM in assay [15]; 37 µM in assay [16]; 54 µM in assay [17]; greater than 100 µM in assay [13]; 2 µM in assay [14]. In [13], the “inhibition of ADC-50 (in words)” value is “not significantly inhibited”.

`O=C(NNC(=O)[C@@H]1CC[C@@H]2CN1C(=O)N2OS(=O)(=O)O)[C@@H]1CCCNC1` [Zidebactam, zidebactam]: the MIC in assay [18] was found to be 0.125 µg/mL. Further, the IC50 was 0.09 µM in [1]; 0.99 µM in assay [2]; 0.12 µM in [3]; 0.14 µM in [4]; 0.12 µM in assay [5]; 0.17 µM in assay [6]. The IC50 in assay [7] turned out to be 0.06 µM; in assay [8], 0.005 µM; in [9], 2.7 µM; in [10] it was 0.11 µM; in assay [11] it was 0.12 µM; in assay [12], 37 µM. In addition, the IC50 in [13] stood at 5.5 µM; in [13] (listed as ZID), 5 µM; in assay [14], 0.09 µM.
